Laboratory results reported in ChEMBL document CHEMBL1201862, “PubChem BioAssay data set” (2004).
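Compound exposure: 48 hours, 5 concentrations, 96-well plates. GI50 marks 50% less growth.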 Active and inactive are the calls of the source. Rule as the data show it: active = GI50 up to about 1.1 µM and inactive = higher.

What was measured:
Experiment in all cases: NCI anticancer screen, dose series, 48 h
CAKI-1 = tested on: CAKI-1
UO-31 = tested on: UO-31
COLO 205 = tested on: COLO 205
HCT-116 = tested on: HCT-116
RXF 393 = tested on: RXF 393
SN12C = tested on: SN12C
UACC-257 = tested on: UACC-257
UACC-62 = tested on: UACC-62
SF-539 = tested on: SF-539
LOX IMVI = tested on: LOX IMVI
SF-268 = tested on: SF-268
SK-MEL-5 = tested on: SK-MEL-5
HOP-92 = tested on: HOP-92
786-0 = tested on: 786-0
DU-145 = tested on: DU-145
MDA-MB-231 = tested on: MDA-MB-231
OVCAR-5 = tested on: OVCAR-5
MDA-N = tested on: MDA-N
NCI/ADR-RES = tested on: NCI/ADR-RES

SMILES | GI50 (CAKI-1) | GI50 (UO-31) | GI50 (COLO 205) | GI50 (HCT-116) | GI50 (RXF 393) | GI50 (SN12C) | GI50 (UACC-257) | GI50 (UACC-62) | GI50 (SF-539) | GI50 (LOX IMVI) | GI50 (SF-268) | GI50 (SK-MEL-5) | GI50 (HOP-92) | GI50 (786-0) | GI50 (DU-145) | GI50 (MDA-MB-231) | GI50 (OVCAR-5) | GI50 (MDA-N) | GI50 (NCI/ADR-RES)
CCCCCCCC(=O)OCC1OC(n2cc(F)c(=O)[nH]c2=O)C(NC(=O)OCc2ccccc2)C(O)C1O (configuration not stated) | > 100 µM (inactive) | > 100 µM (inactive) | 37.8 µM (inactive) | > 100 µM (inactive) | > 100 µM (inactive) | 32.9 µM (inactive) | > 100 µM (inactive) | 32.1 µM (inactive) | 83.4 µM (inactive) | 37.1 µM (inactive) | 46.9 µM (inactive) | 1.55 µM (inactive) | 23.8 µM (inactive) | > 100 µM (inactive) | – | – | – | – | –
COc1nc(SC)nc2c1C(O)n1c(nc3ccccc31)S2 (configuration not stated) | 41.3 µM (inactive) | 3.08 µM (inactive) | – | 11.5 µM (inactive) | – | 24.3 µM (inactive) | 59.6 µM (inactive) | 0.551 µM (active) | – | 34.6 µM (inactive) | 18.4 µM (inactive) | – | 23.3 µM (inactive) | 6.65 µM (inactive) | 53.7 µM (inactive) | 14.4 µM (inactive) | 82 µM (inactive) | 40.4 µM (inactive) | 10.5 µM (inactive)
[O-][n+]1c2ccccc2[n+]([O-])c2ccccc21 | > 100 µM (inactive) | > 100 µM (inactive) | 15.6 µM (inactive) | > 100 µM (inactive) | – | > 100 µM (inactive) | > 100 µM (inactive) | > 100 µM (inactive) | > 100 µM (inactive) | > 100 µM (inactive) | > 100 µM (inactive) | 37.5 µM (inactive) | – | > 100 µM (inactive) | 45.4 µM (inactive) | 44.5 µM (inactive) | > 100 µM (inactive) | – | > 100 µM (inactive)
COC(=O)C(=O)C(C(=O)C(=O)Nc1cc(C)ccc1C)c1nc2ccc(C(=O)c3ccccc3)cc2nc1O (configuration not stated) | 27.5 µM (inactive) | 52.7 µM (inactive) | > 100 µM (inactive) | > 100 µM (inactive) | 46.3 µM (inactive) | > 100 µM (inactive) | > 100 µM (inactive) | 37.2 µM (inactive) | > 100 µM (inactive) | – | > 100 µM (inactive) | 62.1 µM (inactive) | 45.8 µM (inactive) | > 100 µM (inactive) | – | – | 43.1 µM (inactive) | – | –
CC(C)C(/C=C/c1ccc(Cl)c(Cl)c1)=N\NC(=O)N/N=C(/C=C/c1ccc(Cl)c(Cl)c1)C(C)C | > 100 µM (inactive) | > 100 µM (inactive) | > 100 µM (inactive) | – | – | > 100 µM (inactive) | > 100 µM (inactive) | > 100 µM (inactive) | > 100 µM (inactive) | > 100 µM (inactive) | > 100 µM (inactive) | > 100 µM (inactive) | > 100 µM (inactive) | > 100 µM (inactive) | > 100 µM (inactive) | > 100 µM (inactive) | > 100 µM (inactive) | > 100 µM (inactive) | > 100 µM (inactive)
COc1ccc2c(c1)c(=O)c1c(NCCCN(C)CCCNc3ccc4c(=O)n(CCN(C)C)c(=O)n5c6ccc(OC)cc6c(=O)c3c45)ccc3c(=O)n(CCN(C)C)c(=O)n2c31 | < 0.015 µM (active) | < 0.0181 µM (active) | < 0.0473 µM (active) | < 0.01 µM (active) | < 0.0202 µM (active) | < 0.01 µM (active) | 0.352 µM (active) | 0.305 µM (active) | 0.08 µM (active) | < 0.01 µM (active) | 0.0998 µM (active) | – | – | < 0.01 µM (active) | < 0.012 µM (active) | 0.0614 µM (active) | 0.29 µM (active) | 0.17 µM (active) | –
CCOC(=O)c1c(C)n(C)c2c1cc(O)c1[nH]c3c(c12)CCCC3 | 28.4 µM (inactive) | 19.6 µM (inactive) | 10.8 µM (inactive) | 17.9 µM (inactive) | – | 24.2 µM (inactive) | 3.61 µM (inactive) | 18.8 µM (inactive) | 19.2 µM (inactive) | 14.5 µM (inactive) | 2 µM (inactive) | 12.3 µM (inactive) | 0.0185 µM (active) | 15.6 µM (inactive) | 22.8 µM (inactive) | 17.1 µM (inactive) | 28.8 µM (inactive) | 15.6 µM (inactive) | 17.9 µM (inactive)
CC1(C)OCC2(CO1)CSCCCSCC1(COC(C)(C)OC1)CSCCCSC2 | – | > 100 µM (inactive) | > 100 µM (inactive) | > 100 µM (inactive) | – | > 100 µM (inactive) | > 100 µM (inactive) | > 100 µM (inactive) | > 100 µM (inactive) | > 100 µM (inactive) | > 100 µM (inactive) | > 100 µM (inactive) | > 100 µM (inactive) | > 100 µM (inactive) | > 100 µM (inactive) | > 100 µM (inactive) | > 100 µM (inactive) | > 100 µM (inactive) | > 100 µM (inactive)
